We go through 16 compounds from patent US20240092803A1, “BRIDGED COMPOUNDS AS KRAS G12D INHIBITOR AND DEGRADER AND THE USE THEREOF” (BEIGENE SWITZERLAND GMBH, priority 2021, published 2024).

Bounds are passed on as bounds.

The subject of assay [1] is pERK1/2(THR202/TYR204) level in AsPC-1 cells. Description: pERK assay (HTRF) in AsPC-1 cells. The class given is cell-based. Particulars: Homo sapiens, ASPC1, 2 h compound treatment. How it is done: AsPC-1 cell line was used in this study. Cells were maintained in RPMI-1640 supplemented with 10% fetal bovine serum (Thermo Fisher), 50 units/mL penicillin and streptomycin (Thermo Fisher) and kept at 37° C. in a humidified atmosphere of 5% CO2 in air. Cells were reinstated from frozen stocks that were laid down within 30 passages from the original cells purchased. 30000 cells per well were seeded into a 96-well plate and incubated overnight. Cells were treated with a 10-point dilution series. The final compound concentration is from 0 to 10 μM. After 2 h compound treatment, cells were lysed, and the pERK1/2(THR202/TYR204) level in the cell lysates was detected by HTRF kit (Cisbio). In brief, a total of 16 μl of cell lysate from each well of a 96-well plate was transferred to a 384-well white assay plate. Lysate from each well was incubated with 2 μL of Eu3+- cryptate (donor) labeled anti-phospho-ERK1/2 and 2 μL of D2 (acceptor) labeled anti-phospho-ERK1/2 antibodies (Cisbio) overnight in dark at room temperature. When donor and acceptor are in close proximity, excitation of the donor with laser triggers a Fluorescence Resonance Energy Transfer (FRET) towards the acceptor, which in turn fluoresces at 655 nm wavelength. FRET signals were measured using a PHERAstar FSX reader (BMG Labtech). IC50 determination was performed by fitting the curve of percent inhibition versus the log of the inhibitor concentration using Dotmatics.
(Time-resolved FRET reads energy transfer from a long-lived donor to a nearby acceptor.)

Assay [2] concerns the target GST-tagged KRAS (amino acids 1-188) G12D binding to His-tagged SOS1 (Homo sapiens (Human), UniProt P01116, G12D). Description: KRAS G12D:SOS1 GDP TR-FRET assay. To be noted: GDP 10 μM; KRAS G12D 37.5 nM; SOS1 18 nM. The procedure: (§1) KRAS: SOS1 GDP TR-FRET Assay
(§2) This assay was used to identify compounds which competitively interact with the binding of KRAS protein to SOS1 in the presence of GDP. GST-tagged WT KRAS (amino acids 1-188), GST-tagged KRAS (amino acids 1-188) G12D and His- tagged SOS1 protein (amino acids 564-1049) was expressed in E. coli and purified. All protein and reaction solutions were prepared in assay buffer containing DPBS pH7.5, 0.1% BSA, and 0.05% Tween 20. Purified GST-tagged WT KRAS or KRAS G12D protein (37.5 nM final assay concentration) and GDP (Sigma, 10 μM final assay concentration) mixture, a serially diluted compound (top final concentration is 50 uM or 10 uM, 3-fold serially diluted, 10 points) and His-tagged SOS1 protein (18 nM final assay concentration) were added into the assay plates (384 well microplate, black, Corning) sequentially. Plates are incubated at 24° C. for 1 hr. Following the incubation, Mab Anti-6His-Tb cryptate (Cisbio) and Mab Anti GST-D2 (Cisbio) were added and further incubated at 24° C. for another 1 hr. The TR-FRET signals (ex337nm, em665nm/620nm) were read on BMG PHERAstar FSX instrument. The inhibition percentage of KRAS protein binding with SOS1 in presence of increasing concentrations of compounds was calculated based on the ratio of fluorescence at 665 nm to that at 620 nm. The IC50 value of each compound was calculated from fitting the data to the four-parameter logistic model by Dotmatics.

For assay [3], the target named is GST-tagged WT KRAS (amino acids 1-188) binding to His-tagged SOS1 (Homo sapiens (Human), UniProt P01116). Description: KRAS WT:SOS1 GDP TR-FRET assay. To be noted: GDP 10 μM; WT KRAS 37.5 nM; SOS1 18 nM. How it is done: as §1, §2
Sequence of GST-tagged WT KRAS (amino acids 1-188) binding to His-tagged SOS1 (P01116 other isoform, or with tags, fused parts or gaps): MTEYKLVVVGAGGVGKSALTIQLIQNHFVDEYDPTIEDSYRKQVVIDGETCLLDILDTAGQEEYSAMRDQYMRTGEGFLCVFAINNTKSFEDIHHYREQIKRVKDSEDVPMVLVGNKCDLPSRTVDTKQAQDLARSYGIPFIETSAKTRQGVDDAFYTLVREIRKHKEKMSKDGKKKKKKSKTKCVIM
Assay [4] concerns the target KRAS G12D HiBiT in HEK293 KRAS-G12D NanoLuc cell pool (Homo sapiens (Human), UniProt P01116, G12D). Nature of the assay: KRAS G12D NanoLuc assay. The class given is cell-based. To be noted: 24 h compound treatment. How it is done: HEK293 KRAS-G12D NanoLuc cell pool was used in this study. The cells were stable expressing KRAS G12D HiBiT and LgBiT. Cells were maintained in DMEM supplemented with 10% fetal bovine serum (Thermo Fisher), 50 units/mL penicillin and streptomycin (Thermo Fisher) and kept at 37° C. in a humidified atmosphere of 5% CO2 in air. Cells were reinstated from frozen stocks that were laid down within 30 passages from the cell pool was constructed. 20000 cells per well were seeded a 96-well White with Clear Flat bottom plate for 4 h. Cells were treated with a 10-point dilution series. The final compound concentration is from 0 to 10 μM. After 24 h compound treatment, added 20 μL of CellTiter-Fluor reagent (Promega) to plates, shook for 2 min, incubated at least 30 min in 37° C. Added 25 μL of NanoGlo Live cell reagent (Promega) to the same plate. shook by mini-shaker for 5 min. Measure Luminescence and Fluorescence (380-400nmEx/505nmEm) signals immediately using a PHERAstar FSX reader (BMG Labtech). DC50 determination was performed by fitting the curve of percent inhibition versus the log of the inhibitor concentration using Excel and GraphPad Prism 8.

Sequence of GST-tagged KRAS (amino acids 1-188) G12D binding to His-tagged SOS1 (P01116 other isoform, or with tags, fused parts or gaps G12D): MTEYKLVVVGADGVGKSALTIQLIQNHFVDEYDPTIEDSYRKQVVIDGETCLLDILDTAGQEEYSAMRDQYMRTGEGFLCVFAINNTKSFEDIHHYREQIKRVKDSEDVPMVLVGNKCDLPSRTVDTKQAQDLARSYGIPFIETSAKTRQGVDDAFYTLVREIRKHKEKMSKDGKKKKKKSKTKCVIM
Sequence of KRAS G12D HiBiT in HEK293 KRAS-G12D NanoLuc cell pool (P01116 other isoform, or with tags, fused parts or gaps G12D): as above

As a reminder, the IC50 is the concentration that inhibits the measured activity by half. A lower IC50 goes with higher potency. As to `CN1CCC[C@H]1COc1nc2c(c(N3CC4CCC(C3)N4)n1)CCN(c1cccc3cccc(Cl)c13)C2` [Example 7, 4-(3,8-diazabicyclo[3.2.1]octan-3-yl)-7-(8-chloronaphthalen-1-yl)-2-(((S)-1-methylpyrrolidin-2-yl)methoxy)-5,6,7,8-tetrahydropyrido[3,4-d]pyrimidine], the IC50 in assay [1] turned out to be 6.75 µM; in assay [2] it was 0.059 µM; in assay [3], 17.2 µM.
Consider `Cc1cccc2cccc(N3CCc4c(nc(OC[C@@H]5CCCN5C)nc4N4C5CCC4C(N)C5)C3)c12` (stereo partly drawn) [Example 2, 7-(7-(8-methylnaphthalen-1-yl)-2-(((S)-1-methylpyrrolidin-2-yl)methoxy)-5,6,7,8-tetrahydropyrido[3,4-d]pyrimidin-4-yl)-7-azabicyclo[2.2.1]heptan-2-amine], for which the IC50 in assay [2] turned out to be 4.5 µM; in assay [3], 34.2 µM.
In the same order, the values of `Cc1cccc2cccc(N3CCc4c(nc(OC[C@@H]5CCCN5C)nc4N4CC5CC4CN5)C3)c12` (stereo partly drawn) [Example 4, 4-(2,5-diazabicyclo[2.2.1]heptan-2-yl)-7-(8-methylnaphthalen-1-yl)-2-(((S)-1-methylpyrrolidin-2-yl)methoxy)-5,6,7,8-tetrahydropyrido[3,4-d]pyrimidine] are 2.59 µM and above 50 µM.
`Cc1cccc2cccc(N3CCc4c(nc(OC[C@@H]5CCCN5C)nc4N4CC5CCC(C4)N5)C3)c12` [Example 5, 4-(3,8-diazabicyclo[3.2.1]octan-3-yl)-7-(8-methylnaphthalen-1-yl)-2-(((S)-1-methylpyrrolidin-2-yl)methoxy)-5,6,7,8-tetrahydropyrido[3,4-d]pyrimidine]: the results for the IC50 in assay [1], in assay [2] and in assay [3] were above 10 µM, 0.118 µM and above 50 µM, respectively.
The like results for `CN1CCC[C@H]1COc1nc2c(c(N3CC4CCC(C3)N4)n1)CCN(c1cccc3ccc(Cl)c(Cl)c13)C2` [Example 9] were, in that order, 9.93 µM, 0.063 µM and above 10 µM.
For `Cc1cccc2cccc(N3CCc4c(nc(OC[C@@H]5CCCN5C)nc4N4CCNCC4)C3)c12` [Example 1, (S)-7-(8-methylnaphthalen-1-yl)-2-((1-methylpyrrolidin-2-yl)methoxy)-4-(piperazin-1-yl)-5,6,7,8-tetrahydropyrido[3,4-d]pyrimidine], the concentration for half-maximal inhibition (IC50) in assay [2] was 22.7 µM; in assay [3], above 50 µM.
In the same order, the values of `Cc1cccc2cccc(N3CCc4c(nc(OC[C@@H]5CCCN5C)nc4N4CC5CCC4CN5)C3)c12` (stereo partly drawn) [Example 6, 2-(7-(8-methylnaphthalen-1-yl)-2-(((S)-1-methylpyrrolidin-2-yl)methoxy)-5,6,7,8-tetrahydropyrido[3,4-d]pyrimidin-4-yl)-2,5-diazabicyclo[2.2.2]octane] are 0.713 µM and above 50 µM.
Consider `Cc1ncsc1-c1ccc([C@H](C)NC(=O)[C@@H]2C[C@@H](O)CN2C(=O)[C@@H](NC(=O)CCCCCCN2CCC[C@H]2COc2nc3c(c(N4CC5CCC(C4)N5)n2)CCN(c2cccc4cccc(Cl)c24)C3)C(C)(C)C)cc1` [Example 16], for which, in assay [4], the DC50 is 1 µM and the Dmax was 73%.
For the compound `CN1CCC[C@H]1COc1nc2c(c(N3C4CCC3CNC4)n1)CCN(c1cccc3cccc(Cl)c13)C2` [Example 3, 4-(3,8-diazabicyclo[3.2.1]octan-8-yl)-7-(8-chloronaphthalen-1-yl)-2-(((S)-methylpyrrolidin-2-yl)methoxy)-5,6,7,8-tetrahydropyrido[3,4-d]pyrimidine], the IC50 in assay [2] was 0.635 µM; in assay [3], above 50 µM.
As to `CN1CCC[C@H]1COc1nc2c(c(N3CC4CCC(C3)N4)n1)CCN(c1cccc3ccc(F)c(Cl)c13)C2` [Example 11], the IC50 came to 4.64 µM in assay [1], 0.012 µM in assay [2] and 3.62 µM in assay [3].
The like results for `CN1CCC[C@H]1COc1nc2c(c(N3CC4CCC(C3)N4)n1)CCN(c1cc(N)cc(Cl)c1C(F)(F)F)C2` [Example 12, 3-(4-(3,8-diazabicyclo[3.2.1]octan-3-yl)-2-(((S)-1-methylpyrrolidin-2-yl)methoxy)-5,8-dihydropyrido[3,4-d]pyrimidin-7(6H)-yl)-5-chloro-4-(trifluoromethyl)aniline] were, in that order, 1.95 µM, 0.0098 µM and 2.39 µM.
With `CN1CCC[C@H]1COc1nc2c(c(N3CC4CCC(C3)N4)n1)CCN(c1cc(O)cc3ccccc13)C2` [Example 10], the IC50 in assay [2] stood at 0.022 µM; in assay [3], 6.21 µM.
As for `CN1CCC[C@H]1COc1nc2c(c(N3CC4CCC(C3)N4)n1)CCN(c1cc(N)cc(Cl)c1Cl)C2` [Example 13], the values for the IC50 in assay [1], in assay [2] and in assay [3] were 4.1 µM, 0.027 µM and above 10 µM, respectively.
The like results for `CO[C@@H]1C[C@@H](COc2nc3c(c(N4CC5CCC(C4)N5)n2)CCN(c2cccc4cccc(Cl)c24)C3)N(C)C1` [Example 14, 4-(3,8-diazabicyclo[3.2.1]octan-3-yl)-7-(8-chloronaphthalen-1-yl)-2-(((2S,4R)-4-methoxy-1-methylpyrrolidin-2-yl)methoxy)-5,6,7,8-tetrahydropyrido[3,4-d]pyrimidine] were, in that order, above 10 µM, 0.126 µM and above 10 µM.
The like results for `CN1C[C@H](F)C[C@H]1COc1nc2c(c(N3CC4CCC(C3)N4)n1)CCN(c1cccc3cccc(Cl)c13)C2` [Example 15, 4-(3,8-diazabicyclo[3.2.1]octan-3-yl)-7-(8-chloronaphthalen-1-yl)-2-(((2S,4R)-4-fluoro-1-methylpyrrolidin-2-yl)methoxy)-5,6,7,8-tetrahydropyrido[3,4-d]pyrimidine] were, in that order, 4.03 µM, 0.041 µM and above 10 µM.
Take `Cc1cccc2cccc(N3CCc4c(nc(OC[C@@H]5CCCN5C)nc4N4CC5CC(C4)N5)C3)c12` [Example 8, 3-(7-(8-methylnaphthalen-1-yl)-2-(((S)-1-methylpyrrolidin-2-yl)methoxy)-5,6,7,8-tetrahydropyrido[3,4-d]pyrimidin-4-yl)-3,6-diazabicyclo[3.1.1]heptane]: the IC50 is 0.749 µM in assay [2] and above 10 µM in assay [3].
